{"source": "patent US20260028364A1", "about": "“CATIONIC CHROMENONES AND THEIR USE IN ONCOLOGY” (FLORATEK PHARMA S.A., priority 2022, published 2026)", "format_in_all_cases": "cell-based", "key": {"MIA-PaCa-2": {"test_system": "MIA-PaCa-2", "experiment": "CellTiter-Glo cell viability, MIA-PaCa-2", "settings": "Homo sapiens; MIA-PaCa-2 cells, 72 h with compound", "procedure": "(§1) Antitumor activity against a panel of cancer cell lines Antitumor activity of the compounds was assessed by using the CellTiter-Glow® Luminescent Cell Viability assay (Promega #G7572) according to the manufacturer's instructions. The compounds were tested at 5 or 6 concentrations in 1:2 dilution increments (highest concentration 10 µM) in triplicate well conditions.\n(§2) Tumor cells were grown at 37° C. in a humidified atmosphere with 5% CO2 in RPMI 1640 or DMEM medium, supplemented with 10% (v/v) fetal calf serum and 50 μg/ml gentamicin for up to 20 passages, and were passaged once or twice weekly. Cells were harvested using TrypLE or PBS buffer containing 1 mM EDTA, and the percentage of viable cells is determined using a cell counter.\n(§3) Cells were harvested from exponential phase cultures, counted and plated in 96 well flat-bottom microtiter plates at a cell density depending on the cell line's growth rate (4,000-20,000 cells/well depending on the cell line's growth rate) in RPMI 1640 or DMEM medium supplemented with 10% (v/v) fetal calf serum and 50 μg/ml gentamicin (140 μl/well). Cultures were incubated at 37° C. and 5% CO2 in a humidified atmosphere. After 24 h, 10 μl of test compounds or control medium are added, and left on the cells for another 72 h. Compounds were serially diluted in DMSO, transferred in cell culture medium, and added to the assay plates. The DMSO concentration was kept constant at <0.2% v/v across the assay plate. Viability of cells was quantified by the CellTiter-Glow® Luminescent Cell Viability assay (Promega #G7572). Luminescence was measured with the microplate luminometer (En Vision Perkin Elmer).\n(§4) Sigmoidal concentration-response curves were fitted to the data points (test-versus-control, T/C values) obtained for each tumor model using Graph Pad prism 5.02 software. IC50 values are reported as absolute IC50 values, being the concentration of test compound at the intersection of the concentration-response curves with T/C=50%."}, "MCF-7": {"test_system": "MCF-7", "experiment": "CellTiter-Glo cell viability, MCF-7", "settings": "Homo sapiens, MCF7; MCF-7 cells, 72 h with compound", "procedure": "as §1, §2, §3, §4"}, "MOLT-4": {"test_system": "MOLT-4", "experiment": "CellTiter-Glo cell viability, MOLT-4", "settings": "Homo sapiens; MOLT-4 cells, 72 h with compound", "procedure": "as §1, §2\nas §3, with “After 24 h, 10 μl of test compounds or control medium are added, and left on the cells for another 72 h. Compounds were serially diluted in DMSO, transferred in cell culture medium, and added to the assay plates. The DMSO concentration was kept constant at <0.2% v/v across the assay plate.” left out, “Elmer). […]” for “Elmer).”"}, "Oxidative Stress": {"test_system": "Oxidative Stress", "experiment": "SelectScreen CellSensor pathway inhibition, Oxidative Stress", "settings": "Homo sapiens; ARE-bla HepG2, stimulus tBHQ", "procedure": "(§5) Inhibition of various cellular pathways known to be involved in malignancy was tested using the SelectScreen Cell-based Pathway Profiling GeneBLAzer™ cell signaling pathway specific CellSensor™ cell lines ((Thermo Fisher). The assay is based on a beta-lactamase reporter activity which is modulated and can be measured quantitatively and selectively with the LiveBLAzer™-FRET B/G Loading Substrate. SelectScreen Cell-Based Pathway Profiling Service uses XLfit from IDBS. The dose response curve is curve fit to model number 205 (sigmoidal dose-response model). Custom logic was built by Thermo Fisher for the data analysis tool to address the different compound characteristics that can be observed with functional assays.\nOxidative Stress—ARE-bla HepG2—Inhibitor Screen, Activated by tBHQ\nARE-bla HepG2 cells are thawed and resuspended in Assay Media (DMEM, 10% dialyzed FBS, 25 mM HEPES pH 7.3, 0.1 mM NEAA, 100 U/mL/100 μg/mL Pen/Strep) to a concentration of 375,000 cells/mL. 32 μL of cell suspension is added to each well of a 384-well Poly-D-Lysine assay plate. Cells in Assay Media are incubated for 16-24 hours in the plate at 37° C./5% CO2 in a humidified incubator. […] The plate is read on a fluorescence plate reader."}, "NFKB": {"test_system": "NFKB", "experiment": "SelectScreen CellSensor pathway inhibition, NFKB", "settings": "Homo sapiens; NFKB-bla Jurkat, stimulus TNF-alpha", "procedure": "as §5\nNFKB—NFKB-bla Jurkat—Inhibitor Screen, Activated by TNF-Alpha\nNFKB-bla Jurkat cells are thawed and resuspended in Assay Media (DMEM, 10% dialyzed FBS, 25 mM HEPES pH 7.3, 0.1 mM NEAA, 100 U/mL/100 μg/mL Pen/Strep) to a concentration of 625,000 cells/mL. […] 4 μL of 10×control activator TNF-alpha at the pre-determined EC80 concentration is added to wells containing the control inhibitor or compounds.\nThe plate is incubated for 5 hours at 37° C./5% CO2 in a humidified incubator. […] The plate is read on a fluorescence plate reader."}}, "data": [{"smiles": "COc1ccc2c(=O)c(-c3ccc(CCCC[P+](c4ccccc4)(c4ccccc4)c4ccccc4)cc3)coc2c1OC.[Br-]", "note": "[SND470, (4-(4-(7,8-Dimethoxy-4-oxo-4H-chromen-3-yl)phenyl)butyl)triphenylphosphonium bromide]", "values": [{"measurement": "IC50", "setting": "MIA-PaCa-2", "value": 22, "unit": "nM"}, {"measurement": "IC50", "setting": "MCF-7", "value": 21, "unit": "nM"}, {"measurement": "IC50", "setting": "MOLT-4", "value": 400, "unit": "nM"}, {"measurement": "IC50", "setting": "Oxidative Stress", "value": 1350, "unit": "nM"}, {"measurement": "IC50", "setting": "NFKB", "value": 1530, "unit": "nM"}]}]}
